Reference: paper PMC8310135 (Viruses, 2021)
Where two headings read alike, the source gives them in different places.

Experiments:
[1] = tested on: LASV; conditions: read-out: EC50 against LASV; cited from earlier work
[2] = in vitro; conditions: human
[3] = tested on: rLUJV/ZsG; experiment: microbe, parasite or virus in culture; assay type: cell-based, Lujo virus
[4] = tested on: LUJV; conditions: cited from earlier work

For `C[C@@H](c1nc(-c2ccc(C#N)cc2)cs1)[C@](O)(Cn1cncn1)c1cc(F)ccc1F` [Isavucanazole], the EC50 [1] is given as 1.2 µM, the viability at 0.05 µM [2] is given as 114% and the viability at 0.5 µM [2] is given as 121%. For the same molecule, the viability at 5 µM [2] was 75%, the CC50 ([2]; CC50 (50% cell cytotoxicity concentration)) was 12.7 ± 3.97 µM and the “SI (selectivity index, CC50 divided by EC50)” value [3] was 2.1. For the same molecule, the EC50 ([3]; Mammarenavirus lujoense, Huh-7, read-out: EC50 (concentration inhibiting ZsG expression by 50%)) was 6.1 ± 0.9 µM, the activity at 0.05 µM ([3]; Mammarenavirus lujoense, Huh-7, 50 nM, read-out: Relative ZsG (%) Mean) was 73% and the activity at 0.5 µM ([3]; Mammarenavirus lujoense, Huh-7, 500 nM, read-out: Relative ZsG (%) Mean) was 75%. For the same molecule, the activity at 5 µM ([3]; Mammarenavirus lujoense, Huh-7, 5000 nM, read-out: Relative ZsG (%) Mean) was 34%, the EC50 ([3]; read-out: EC50 (concentration inhibiting ZsG expression by 50%)) was 6.11 ± 0.926 µM and the “inhibition of LUJV” value [4] was “did not inhibit”.
